What all share (experiment): inhibition of tumour cell growth, NCI panel, 48 h
The subject of test [1] is A549 NSCLC.
For test [2], the system named is COLO 205 colon.
The subject of test [3] is HOP-92 NSCLC.
Test [4] concerns K-562 leukemia.
Test [5] has as its system MOLT-4 leukemia.
For test [6], the system named is SF-268 CNS.
For test [7], the system named is SK-MEL-2 melanoma.
Test [8] has as its system UACC-62 melanoma.
For test [9], the system named is MDA-MB-231 breast.
Test [10] deals with MCF7 breast.

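Step 1: Grow cells in 96-well plates. Step 2: Expose to compound for 48 hours at 5 concentrations. Step 3: Interpolate endpoints linearly; if unreached, use highest concentration. GI50: concentration for 50% inhibition of growth. TGI: total growth inhibition.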

`CCc1cccc(C)c1NC(=O)C1=C(C)NC(C)=C(C(=O)Nc2c(C)cccc2CC)C1c1ccc2c(c1)OCO2`: the TGI in test [1] was 43.6 µM; in test [2] it was 38.6 µM; in test [3], 59.3 µM; in [4], 92.3 µM; in [5], 72.8 µM; in test [6], 59.5 µM. In test [7], this compound yielded a TGI of 29.6 µM.

`COc1cccc(NC(=O)CC(=O)N2N=C(n3ccc4ccccc43)CC2c2ccccc2)c1` (centres undefined): the TGI in [1], in test [2], in [3], in test [4], in test [5] and in test [6] was more than 100 µM in each case. The TGI in test [7] and in test [8] was more than 100 µM in each case.

As for `C=C1CC[C@@H]2[C@](C)(COC(C)=O)[C@H](OC(C)=O)CC[C@@]2(C)[C@@H]1CC(Nc1ccc(S(=O)(=O)Nc2ccc(Cl)nn2)cc1)C1=CCOC1=O` (some centres undefined), the GI50 in test [1] is 2.96 µM; in test [2], 1.46 µM; in test [3] it was 2.7 µM; in [4], 0.526 µM; in test [9], 1.9 µM; in [5] it was 1.96 µM. Also, the figures for the GI50 in test [6], in test [7] and in [8] were 1.8 µM, 1.77 µM and 1.49 µM, respectively. Moreover, the TGI in test [1] was 10.7 µM; in [2] it was 3.16 µM; in test [3], 7.89 µM; in test [4], 5.19 µM; in test [9] it was 3.96 µM; in test [5], more than 100 µM. For the same compound, the TGI in test [6] came to 3.67 µM; in test [7] it was 3.99 µM; in test [8] it was 3.86 µM.

Take `CC(=O)O[C@H]1CCC2[C@@H]3CCC4c5nonc5CC[C@]4(C)C3CC[C@@]21C` (some centres undefined): the TGI was more than 10 µM in test [1]; more than 10 µM in [2]; more than 100 µM in test [3]; more than 100 µM in test [4]; more than 10 µM in [5]; more than 10 µM in [6]. The TGI in [7] and in test [8] was more than 100 µM throughout. Further, the GI50 in test [3], in test [4], in test [7] and in [8] was more than 100 µM each time.

On to `C[CH2][Sn]([CH2]C)([O]C(=O)c1ccccc1F)[O][Sn]([CH2]C)([CH2]C)[O]C(=O)c1ccccc1F`, for which the GI50 in [1] is more than 100 µM; in test [2], 25.6 µM; in [3], 19 µM; in [4] it was 13.5 µM; in [5], 22 µM; in test [6], 23.2 µM. The values for the GI50 in test [7] and in [8] were 19.1 µM and 18.1 µM, respectively. The TGI is more than 100 µM in test [1]; more than 57.9 µM in test [2]; 34.7 µM in [3]; 36.6 µM in [4]; more than 75.3 µM in test [5]; 50.7 µM in test [6]. Besides, the figures for the TGI in test [7] and in test [8] were 38.6 µM and 35.1 µM, respectively.

For `COc1ccc(C(=O)/C=C/c2cccc(Nc3ccnc4cc(Cl)ccc34)c2)cc1`, the GI50 in test [1] is 2.78 µM; in [2], 3.85 µM; in test [3], 1.09 µM; in test [4], 1.64 µM; in [10] it was 1.82 µM; in test [5] it was 2.9 µM. For the same compound, the TGI in test [1] was more than 100 µM; in test [2], more than 100 µM; in test [3] it was 7.08 µM; in test [4], 18.1 µM; in test [10], more than 100 µM; in test [5], more than 100 µM.

For `Nc1nc(-c2ccco2)cc(-c2ccc(CO)o2)n1`, the TGI in test [1], in test [2], in [4], in [5], in test [6] and in test [7] was more than 100 µM each time. Besides, in [8], the TGI is more than 100 µM.

Consider `O=C(NC(=Nc1ccccc1)SCCSC(=Nc1ccccc1)NC(=O)c1cccs1)c1cccs1`, for which the TGI in test [1] was more than 100 µM; in [2], more than 100 µM; in [3], 46.1 µM; in test [4] it was more than 100 µM; in test [5], more than 100 µM; in [7] it was more than 100 µM. In [8], this compound came in with a TGI of more than 100 µM.

In the case of `NC(=O)NC12CC3CC(CC(F)(C3)C1)C2`, the TGI in [1], in [2], in test [3], in [4], in [5] and in test [7] was more than 100 µM each time. The same compound returned a TGI in test [8] of more than 100 µM.

For `O=S(=O)(/C=C/CS(=O)(=O)c1ccccc1)c1ccccc1`, the TGI in [1] is 60.8 µM; in test [2], more than 100 µM; in test [3], more than 100 µM; in test [4], 98.4 µM; in test [5], 74 µM; in test [6] it was more than 100 µM. The TGI was 29.3 µM in test [7] and 52.2 µM in test [8].

Take `COc1cc2c(cc1OC)[C@@H](Nc1ccc(F)cc1)C1COC(=O)[C@@H]1C2c1cc(OC)c(O)c(OC)c1` (some centres undefined): the TGI in [1] was 15 µM; in test [2] it was 33.3 µM; in [4], 11.8 µM; in [5] it was 0.21 µM; in test [6], more than 67.1 µM; in test [7], more than 60.9 µM. The TGI in [8] turned out to be 19.9 µM.

`O=C(N/C(=C\c1ccc(/C=C(\NC(=O)c2ccccc2)c2nc3ccccc3[nH]2)cc1)c1nc2ccccc2[nH]1)c1ccccc1`: the TGI in test [1], in [2], in [3], in test [4], in test [5] and in test [6] was more than 100 µM in each case. The TGI in test [7] and in [8] was more than 100 µM in each case.

As to `O=C(O)C(CS)NCc1c2ccccc2nc2ccccc12` (centres undefined), the TGI in test [1] was more than 100 µM; in test [2], more than 100 µM; in test [3], 88.9 µM; in [4], more than 100 µM; in test [5], more than 100 µM; in test [6], more than 100 µM. In test [7], the TGI is more than 100 µM.

The record behind these values is PubChem BioAssay (NCI).
